These results are taken from ChEMBL document CHEMBL2384976, “Synthesis and cytotoxic evaluation of novel pyrimidine deoxyapiothionucleosides” (Bioorg Med Chem Lett, 2013).

For one assay, the system named is MRC5. Nature of the assay: Cytotoxicity against human MRC5 cells after 48 hrs by MTT assay. The format is cell-based. In general terms: Tetrazolium dyes change colour on reduction, which living cells bring about.
Assay [1] relates to HT-29. Nature of the assay: Cytotoxicity against human HT-29 cells after 48 hrs by MTT assay. The format is functional, cell-based.
The subject of assay [2] is MDA-MB-231. Nature of the assay: Cytotoxicity against human MDA-MB-231 cells after 48 hrs by MTT assay. The class given is functional, cell-based.
Another assay relates to MCF7. Put plainly: Cytotoxicity against human MCF7 cells after 48 hrs by MTT assay. The class given is functional, cell-based.
For another assay, the system named is A549. Nature of the assay: Cytotoxicity against human A549 cells after 48 hrs by MTT assay. The class given is functional, cell-based.
A further assay deals with HeLa. Put plainly: Cytotoxicity against human HeLa cells after 48 hrs by MTT assay. The class given is functional, cell-based.
Assay [3] relates to HT-29. Put plainly: Induction of cytotoxic response in human HT-29 cells after 48 hrs by MTT assay. The class given is functional.
The test system of assay [4] is MDA-MB-231. Put plainly: Induction of cytotoxic response in human MDA-MB-231 cells after 48 hrs by MTT assay. The class given is functional.

The term IC50 denotes the concentration that inhibits the measured activity by half. A high value points to a need for much substance. For `C[C@@]1(O)CS[C@@H](n2ccc(N)nc2=O)[C@@H]1O` [listing 1 of 2 here], the half-maximal inhibitory concentration (IC50) was found to be 147 µM with MRC5 (mrc5); 6400 µM in the assay on HT-29 [1] (ht-29); 10 µM with MDA-MB-231 [2] (mda-mb-231); 139 µM with MCF7 (mcf7); 9 µM in the assay on A549 (a549); 17 µM in the assay on HeLa (hela).

Regarding `C[C@@]1(O)CS[C@@H](n2ccc(=O)[nH]c2=O)[C@@H]1O`, the IC50 in the assay with MRC5 (Homo sapiens, MRC5, 48 h) is 630 µM; in the assay with HT-29 [1] (Homo sapiens, HT-29, 48 h) it was 8 µM; in the assay on MDA-MB-231 [2] (Homo sapiens, MDA-MB-231, 48 h), 19 µM; in the assay with MCF7 (Homo sapiens, MCF7, 48 h) it was 193 µM; with A549 (Homo sapiens, A549, 48 h), 4270 µM; in the assay with HeLa (Homo sapiens, HeLa, 48 h), 214 µM.

`C[C@]1(O)CS[C@H](n2ccc(N)nc2=O)[C@H]1O`: the IC50 is 221 µM with MRC5 (Homo sapiens, MRC5, 48 h); 5990 µM with HT-29 [1] (Homo sapiens, HT-29, 48 h); 11 µM with MDA-MB-231 [2] (Homo sapiens, MDA-MB-231, 48 h); 13 µM in the assay with MCF7 (Homo sapiens, MCF7, 48 h); 223 µM with A549 (Homo sapiens, A549, 48 h); 12 µM in the assay on HeLa (Homo sapiens, HeLa, 48 h).

Turning to `Cc1cn([C@H]2SC[C@](C)(O)[C@@H]2O)c(=O)[nH]c1=O`, the IC50 with MRC5 (Homo sapiens, MRC5, 48 h) amounted to 290 µM; with HT-29 [1] (Homo sapiens, HT-29, 48 h) it was 640 µM; in the assay with MDA-MB-231 [2] (Homo sapiens, MDA-MB-231, 48 h), 52 µM; with MCF7 (Homo sapiens, MCF7, 48 h) it was 172 µM; with A549 (Homo sapiens, A549, 48 h), 30 µM; in the assay with HeLa (Homo sapiens, HeLa, 48 h), 6870 µM.

Take `C[C@@]1(O)CS[C@@H](n2ccc(N)nc2=O)[C@@H]1O` [listing 2 of 2 here]: the IC50 was found to be 4340 µM in the assay on MRC5 (mrc5); 2270 µM in the assay on HT-29 [1] (ht-29); 58 µM with MDA-MB-231 [2] (mda-mb-231); 1980 µM in the assay on MCF7 (mcf7); 1320 µM in the assay on A549 (a549); 106 µM in the assay on HeLa (hela).

For `C[C@]1(O)CS[C@H](n2ccc(=O)[nH]c2=O)[C@H]1O`, the IC50 with MRC5 (Homo sapiens, MRC5, 48 h) is 1000 µM; in the assay on HT-29 [1] (Homo sapiens, HT-29, 48 h) it was 269 µM; in the assay with MDA-MB-231 [2] (Homo sapiens, MDA-MB-231, 48 h), 14 µM; in the assay on MCF7 (Homo sapiens, MCF7, 48 h), 100 µM; in the assay on A549 (Homo sapiens, A549, 48 h), 30 µM; in the assay on HeLa (Homo sapiens, HeLa, 48 h) it was 4320 µM.

For `Cc1cn([C@@H]2SC[C@@](C)(O)[C@H]2O)c(=O)[nH]c1=O`, the results for the Activity in the assay on HT-29 [3] and with MDA-MB-231 [4] were 62% and 57%, respectively. Also, the IC50 was 269 µM in the assay with MRC5 (Homo sapiens, MRC5, 48 h); 5 µM in the assay with HT-29 [1] (Homo sapiens, HT-29, 48 h); 3 µM in the assay with MDA-MB-231 [2] (Homo sapiens, MDA-MB-231, 48 h); 323 µM in the assay on MCF7 (Homo sapiens, MCF7, 48 h); 41 µM in the assay with A549 (Homo sapiens, A549, 48 h); 214 µM in the assay on HeLa (Homo sapiens, HeLa, 48 h).
